Data from patent publication US4687481A, “Transdermal drug delivery system” (priority 1986, dated 1987).
Where “and” joins values, the source holds several entries; their conditions need not be identical. Equal values may be shown once. Entries after “also recorded” stand apart in the source; their conditions may differ. Read-outs that look alike come from different tables or passages of the source.

Columns and labels:
[1] = cited from earlier work; for FLUX (Feldman 1969) / FLUX (SCHAEFER 1979): human skin; for flux rates in comparison to the corticosterones: Table I
[2] = In vitro mouse skin permeation from patch, Franz diffusion cell; conditions: for Rate of permeation: 2.4 sq. cm., estradiol value is a minimum not corrected for saturation effects, maximum flux expected nearly 2-3 times greater
Protocol: A typical sustained release for the release of levonorgestrel is: a 9.4 square centimeter of Johnson and Johnson Rayon™ First Aid Tape-Hypo-Allergenic--1 inch wide, 1.5 inch long for the impervious backing and to form the adhesive layer and a 2 square centimeter ID--2.25 square centimeter OD--2/3 mm thick teflon ring. […] Microspheres are prepared from the levonorgestrel and the poly-L(-)lactide as follows: Prepare a 2.5 percent wt/v solution of polyvinyl alcohol (PVA) #523 in one liter of distilled water; prepare a 15 percent wt/v solution of poly-L-(-)lactide, approx. 1 R.S.V. in 300 ml of reagent grade methylene chloride; mix 5 ml of the poly-L-(-)lactide solution, 10 ml methylene chloride and 5 grams of levonorgestrel to form a uniform slurry; take the 1 l of PVA solution and pour it into a 2 l stainless steel beaker. Stir at approx. 1000 RPM (1550×0.7) and heat at low temperature, (approx. 35° C.); add levonorgestrel slurry. Heat approx. 4 hours, then turn off heat and stirrer; wet sieve off the 45-106 um size fraction; and dry in vacuum oven at room temperature and recover the solid microspheres. Then 45 mg of these solid microspheres are mixed with 85 mg of Vaseline or a viscous vehicle (trademark of Chesebrough-Pond's, Inc.). The Teflon ring is placed in the center on the adhesive side of the tape and the Vaseline mixture is then spread to uniform thickness iside the Teflon ring. The porous membrane is then placed over the mixture of Vaseline to form a complete patch. An estradiol patch is similarly prepared using 70 mg of Vaseline with 38 mg of microspheres containing estradiol.
In Vitro mouse skin permeation studies were conducted with a 2.4 square centimeter patch which was placed in a 20 mm diameter water jacketted Franz diffusion cell mounted on a 9-cell Drive Unit/Mounting Assembly. The water jacket temperature of the cells was controlled by a bath and water circulator which is maintained at 37° C. This system is widely used in the pharmaceutical industry for measuring the permeability of percutaneous patches across animal and cadaver skins.
Release of each drug was determined as a function of time by analysis of aliquots of the contents of the reservoir in a Waters High Pressure Liquid Chromatograph (HPLC) using a u Bondpak C-18 radial pack column with a mobile phase of 60% ethanol in water. The steroids were measured in a uv detector at a wavelength of 280 nm for estradiol and 254 for levonorgestrel.
Pieces of full thickness abdominal skin were freshly excised from a 6 week old male nude mice and mounted individually on the Franz diffusion cell. Before use, the skins were washed three times in 200 ml normal saline to remove extraneous and other soluble material. The face membrane of the system was applied to the stratum corneum side of the skin. The skin permeation profile of each drug was followed by removing the liquid from the receptor compartment for assay at the appropriate intervals. The compartment was then filled with fresh saline and the permeation continued. Release of the drug was monitored in a liquid chromatograph (HPLC).

[3] = Protocol: To obtain maximum flux rates aliquots of the reservoir were analyzed during a period of 8 hours on day 2, day 3, and day 7.
[4] = cited from earlier work; for oral effectiveness: "first pass" inactivation
[5] = cited from earlier work
[6] = implantable drug delivery systems; cited from earlier work
[7] = cited from earlier work; remark: listed apart in the source

## C[C@]12C[C@H](O)[C@H]3[C@@H](CCC4=CC(=O)CC[C@@]43C)[C@@H]1CC[C@@H]2C(=O)CO [Corticosterone]
[1]
  FLUX (Feldman 1969): 7.5 × 10^-12 MOLES/CM^2 HR

## C[C@]12CC[C@@H]3c4ccc(O)cc4CC[C@H]3[C@@H]1CC[C@@H]2O [Estradiol, 17β estradiol]
[2]; 2.4 square centimeter estradiol patch, per day, mass unit not given
  permeation rate: 5
[2]; 2.4 square centimeter patch (DermaPatch)
  delivery across freshly excised mouse skin: 5 micrograms/day
[2]; Table 3, 2.4 sq. cm. patch
  Minimum dose absorbed: > 5.2 mcg./24 hr.
[2]; Table 3
  Rate of permeation: > 0.09 mcg./sq. cm./hr.
[2]; day 1
  mouse skin permeation: 6 Micrograms/2.4 sq. cm.
[2]; day 2
  mouse skin permeation: 10 Micrograms/2.4 sq. cm.
[2]; day 3
  mouse skin permeation: 16 Micrograms/2.4 sq. cm.
[3]
  Estimated size needed to deliver required dose: 5
[1]
  flux rates in comparison to the corticosterones: fairly high
  FLUX (Feldman 1969): 8.2 × 10^-11 MOLES/CM^2 HR
  FLUX (SCHAEFER 1979): 5.8 × 10^-10 MOLES/CM^2 HR and 4.6 × 10^-10 MOLES/CM^2 HR
[4]
  oral effectiveness: limited oral effectiveness

## C[C@]12CC[C@@H]3c4ccc(O)cc4CC[C@H]3[C@@H]1C[C@@H](O)[C@@H]2O [Estriol]
[1]
  FLUX (SCHAEFER 1979): 7.8 × 10^-11 MOLES/CM^2 HR

## C[C@]12CCC(=O)C=C1CC[C@@H]1[C@@H]2[C@@H](O)C[C@@]2(C)[C@H]1CC[C@]2(O)C(=O)CO [Hydrocortisone]
[1]
  FLUX (Feldman 1969): 2.5 × 10^-11 MOLES/CM^2 HR
[5]; modified skin, when the skin is occluded
  increase in the penetration of hydrocortisone: tenfold increase
[5]; through modified skin, occluded
  penetration of hydrocortisone when the skin is occluded: 10%
[5]; through modified skin, starting value, not occluded
  penetration of hydrocortisone before increase: 1%

## C#C[C@]1(O)CC[C@H]2[C@@H]3CCC4=CC(=O)CC[C@@H]4[C@H]3CC[C@@]21CC [Levonorgestrel, levonorgestrel]
[2]
  Minimum dose absorbed: 43-160 mcg./24 hr.
  delivery across freshly excised mouse skin: 43 micrograms/day
[2]; Table 3
  Rate of permeation: 0.75-2.8 mcg./sq. cm./hr.
[2]; abdominal skin of nude mouse
  skin permeation / release profile: zero order release; also recorded: zero order rate
[2]; aliquots during 8 hours on day 2, day 3 and day 7, 2.4 square centimeter patch
  average rate of release (maximum flux rates): 6.7 micrograms per hour
[2]; day 1
  mouse skin permeation: about 25 Micrograms/2.4 sq. cm.
[2]; day 2
  mouse skin permeation: 90 Micrograms/2.4 sq. cm.
[2]; day 3
  mouse skin permeation: 140 Micrograms/2.4 sq. cm.
[2]; day 7
  mouse skin permeation: 270 Micrograms/2.4 sq. cm.
[2]; day 8
  mouse skin permeation: 375 Micrograms/2.4 sq. cm.
[2]; day 9
  mouse skin permeation: 405 Micrograms/2.4 sq. cm.
[2]; day 10
  mouse skin permeation: 570 Micrograms/2.4 sq. cm.
[2]; day 11
  mouse skin permeation: 505 Micrograms/2.4 sq. cm.
[2]; day 14
  mouse skin permeation: 590 Micrograms/2.4 sq. cm.
[2]; during 24 hours, membrane area 2.4 square centimeters
  rate of skin permeation: approximately 43 ug/day
[2]; from 6.7 micrograms per hour, days 2, 3 and 7
  average rate of release (maximum flux rates): 160 micrograms per day/2.4 square/centimeters
[3]; dose required 20 (levonorgestrel) or 25 (estradiol) mcg./day
  Estimated size needed to deliver required dose: 0.5 sq. cm.
[3]; patch surface area 0.5 square centimeters
  estimated delivery from a patch: 20 micrograms per day
[3]; patch surface area 5 square centimeters
  estimated delivery from a patch: 2.5 milligrams per day
[6]
  dose sufficient to prevent fertility: 30 micrograms per day

## CC(=O)[C@H]1CC[C@H]2[C@@H]3CCC4=CC(=O)CC[C@]4(C)[C@H]3CC[C@]12C [Progesteone, progesterone]
[1]
  flux rates in comparison to the corticosterones: fairly high
  FLUX (Feldman 1969): 3.4 × 10^-11 MOLES/CM^2 HR
[7]; in vivo
  accumulation in subcutaneous tissue and underlying muscle: more pronounced with percutaneous than with subcutaneous administration

## C#C[C@]1(O)CC[C@H]2[C@@H]3CCc4cc(O)ccc4[C@H]3CC[C@@]21C [ethinylestradiol]
[4]
  oral effectiveness: active orally
[4]; oral
  inactivation by the liver and other tissues: very low

## CN(Cc1cnc2nc(N)nc(N)c2n1)c1ccc(C(=O)N[C@@H](CCC(=O)O)C(=O)O)cc1 [methotrexate]
[7]; irritation increases epidermal turnover
  reduction of the duration of the reservoir: ~50%

## CN1CCCC1c1cccnc1 (stereo not shown) [nicotine]
[7]; compound which very rapidly penetrates and diffuses
  period maintained in the reservoir: 3 to 4 days

## estrogen
[7]; percutaneous versus subcutaneous administration
  accumulation in subcutaneous tissue and underlying muscle: more pronounced with percutaneous than with subcutaneous administration
